Data: patent US4450292A, “Derivatives of phenyl aliphatic carboxylic acids, and use thereof in treating gastric and gastro-duodenal ailments” (Roussel Uclaf, priority 1981, dated 1984)
Where a name gives a salt, the structure may show the parent alone.

Legend:
Type in all cases: in vivo
[1] = test system: ulcers in rats at the level of the stomach; test: Anti-ulcer activity, SHAY technique (ligating of the pylorus); details: by mouth, about 16 hours after treatment
Description: (1) Determination of the anti-ulcer activity of the compounds of Examples 1 to 4
The technique used is described by SHAY et al in Gastroenterology, 5, 43, (1945).
SHAY'S technique consists in inducing ulcers in rats at the level of the stomach by ligating of the pylorus.
The animals are anesthetized with ether. A longitudinal incision is made about 1 cm below the sternum, the glandular portion of the stomach and the duodenum are exposed and a ligature is applied a few millimeters below the pylorus. The muscular layer is left as is and the skin is sutured by two clips.
The animals immediately receive the dispersant or the substance to be studied by mouth in a volume of 0.5 cc per hundred grams and are kept without food or drink until sacrificed by carotic venesection, effected about 16 hours after the treatment.
Before removing the stomach, a ligature is placed around the cardia.
The gastric fluid is collected in order to measure the pH thereof.
The stomach is then opened along the greater curvature, rinsed in physiological serum and spread out on millimeter paper in order to be examined under a binocular lens.
The seriousness of the lesions is evaluated macroscopically, being rated from 0 to 4 for each stomach.
For each lot of rats the average intensity of the ulcerations is determined and the protection calculated by referring the average index of the group to the average index of the control group.
The pH values of the gastric liquid are also determined for the treated animals and the control animals.

[2] = Acute toxicity, LD50 lethal dose after oral administration to mice; details: mouse, in vivo, po, orally
Description: (§1) (3) Determination of the acute toxicity
(§2) The LD50 lethal dose of the derivatives of Examples 1 to 9 after administration orally to mice was evaluated.

[3] = test system: gastric fluid; test: Anti-ulcer activity, SHAY technique as modified by P. H. Guth (pylorus ligature plus aspirin), pH of the gastric fluid; details: rats, orally, aspirin 200 mg/kg
Description: (2) Determination of the anti-ulcer activity of the compounds of Examples 7 and 8
The technique used is described by SHAY et al in Gastroenterology, 5, 43 (1945) as modified by P. H. Guth in Gastroenterology, 76, 88 (1976).
After 48 hours fast, rats receive the dispersant or the substance to be studied orally in a volume of 1 cc/100 g.
One hour later the animals are anesthetized with ether. A longitudinal incision is made about 1 cm below the sternum, the glandular part of the stomach and the duodenum are exposed and a ligature is placed a few millimeters below the pylorus. The muscular layer is sutured and the skin is clipped.
An hour later, 200 mg/kg of aspirin dispersed in a 1% suspension of methyl cellulose in water to which 150 millimoles of hydrochloric acid have been added are administered orally in a volume of 0.5 cc/100 g.
Two hours after this last administration, the animals are sacrificed by means of carbon dioxide.
Before removing the stomach, a ligature is placed above the cardia.
The gastric fluid is collected in order to measure its pH for the treated animals and the control animals.

[4] = test system: mice; test: Acute toxicity, LD50 lethal dose after oral administration to mice; details: orally
Description: as §1, §2

COc1cc(OC)c(C(=O)CC(O)C(=O)O)cc1OC (centres unmarked) [Example 1, 4-(2,4,5-trimethoxyphenyl)-4-oxo-2-hydroxy butanoic acid]
Ulcerization % Protection As Compared with the Controls ([1]; 100 mg/kg): 43%
pH of the Gastric Fluid, Treated Animals ([1]; 100 mg/kg): 2.5
LD50 [2]: 1000 mg/kg

COc1cc(OC)c(C(=O)/C=C/C(=O)O)cc1OC [Example 2, (E) 4-(2,4,5-trimethoxyphenyl)-4-oxo-2-butenoic acid]
Ulcerization % Protection As Compared with the Controls ([1]; 4 mg/kg): 72%
pH of the Gastric Fluid, Treated Animals ([1]; 4 mg/kg): 3.6
Ulcerization % Protection As Compared with the Controls ([1]; 20 mg/kg): 100%
pH of the Gastric Fluid, Treated Animals ([1]; 20 mg/kg): 4.6
LD50 [2]: 600 mg/kg

COc1cc(C(=O)CC(O)C(=O)O)cc(OC)c1OC (centres unmarked) [Example 3, 4-(3,4,5-trimethoxyphenyl)-4-oxo-2-hydroxy butanoic acid]
Ulcerization % Protection As Compared with the Controls ([1]; 100 mg/kg): 45%
pH of the Gastric Fluid, Treated Animals ([1]; 100 mg/kg): 3.7
LD50 [2]: 1000 mg/kg

COc1cc(C(=O)/C=C/C(=O)O)cc(OC)c1OC [Example 4, (E)-4-(3,4,5-trimethoxyphenyl)-4-oxo-2-butenoic acid]
Ulcerization % Protection As Compared with the Controls ([1]; 0.8 mg/kg): 38%
pH of the Gastric Fluid, Treated Animals ([1]; 0.8 mg/kg): 1.8
Ulcerization % Protection As Compared with the Controls ([1]; 4 mg/kg): 65%
pH of the Gastric Fluid, Treated Animals ([1]; 4 mg/kg): 3.0
Ulcerization % Protection As Compared with the Controls ([1]; 20 mg/kg): 98%
pH of the Gastric Fluid, Treated Animals ([1]; 20 mg/kg): 2.4
LD50 [2]: 600 mg/kg

COc1cc(OC)c(C(=O)/C=C/C(=O)O)c(OC)c1 [Example 5, (E)-4-(2,4,6-trimethoxyphenyl)-4-oxo-2-butenoic acid]
LD50 [2]: 200 mg/kg

COc1cc(C(=O)/C=C/C(=O)O)cc(OC)c1OC [Example 7, Morpholine salt of (E) 4-(3,4,5-trimethoxyphenyl)-4-oxo-2-butenoic acid]
pH of the Gastric Fluid, Treated Animals ([3]; 4 mg/kg): 2
pH of the Gastric Fluid, Treated Animals ([3]; 20 mg/kg): 2.4
pH of the Gastric Fluid, Treated Animals ([3]; 100 mg/kg): 4.1
LD50 [4]: > 400 mg/kg

COc1cc(C(=O)/C=C/C(=O)O)cc(OC)c1OC [Example 8, Sodium salt of (E)-4-(3,4,5-trimethoxyphenyl)-4-oxo-2-butenoic acid]
pH of the Gastric Fluid, Treated Animals ([3]; 0.8 mg/kg): 2.3
pH of the Gastric Fluid, Treated Animals ([3]; 4 mg/kg): 2.2
pH of the Gastric Fluid, Treated Animals ([3]; 20 mg/kg): 3
pH of the Gastric Fluid, Treated Animals ([3]; 100 mg/kg): 4.6
LD50 [4]: > 400 mg/kg

COc1cc(C(=O)/C=C/C(=O)O)cc(OC)c1OC [Example 9, Piperidine salt of (E)-4-(3,4,5-trimethoxyphenyl)-4-oxo-2-butenoic acid]
LD50 [4]: > 400 mg/kg
